Assay results reported in patent US11773086B2, “Fungal modulators” (TRUSTEES OF BOSTON UNIVERSITY, priority 2020, dated 2023).

System: FLC-resistant Candida auris
Assay: Checkerboard (dose-response matrix) with fluconazole, FICI
Assay type: cell-based
Conditions: fractional inhibitory concentration index for enhancement of FLC activity in FLC-resistant Candida auris; <0.5 strong synergy, 2 = no synergy
Procedure: Generally, the synergy is measured by determining the fractional inhibitory concentration (FIC) value of the combination. […] FIC values for both agents in a particular square/well are calculated in this way followed by determination of the FIC index (sum of the FICs of each agent in the particular square/well).
Compound potency was assessed alone by dose response assays or in combination with another compound by dose-response matrixes in 96-well plates, or 384-well, flat-bottom, microtiter plates (Corning) as previously described. Plates were incubated at 30° C. for the indicated time period. Growth was quantified by measuring OD600 and corrected for medium background. All strains were assessed in biological duplicate experiments with technical duplicates. Growth was normalized to untreated controls and plotted as a heat map using Java TreeView 1.1.6r4. For dose-response matrixes fractional inhibitory concentration index at 90% growth inhibition (FICI90) was calculated as previously described. The fluconazole Etest susceptibility assay was performed as previously described. Briefly, 200 μL of 5×10^6 cells/mL were plated on YPD agar (1%) plates with either with 50 μM azoffluxin or containing DMSO.

Q: CC(C)C[C@@H](O)COc1cc2c(cc1C1(c3cc4c(cc3OC[C@H](O)CC(C)C)OCO4)C(=O)Nc3cc(F)ccc31)OCO2 [CMLD012393, 6-fluoro-3,3-bis(6-(((R)-2-hydroxy-4-methylpentyl)oxy)benzo[d][1,3]dioxol-5-yl)indolin-2-one] was tested. Which FICI did it give?
A: 0.130

Q: For CC[C@@H](O)COc1cc2c(cc1C1(c3cc4c(cc3OC[C@H](O)CC)OCO4)C(=O)Nc3cc(F)ccc31)OCO2 [CMLD012394, 6-fluoro-3,3-bis(6-((R)-2-hydroxybutoxy)benzo[d][1,3]dioxol-5-yl)indolin-2-one], which FICI is on record?
A: 0.266

Q: Which FICI does the source give for CC[C@@H](O)COc1cc2c(cc1C1(c3cc4c(cc3OC[C@H](O)CC)OCO4)C(=O)Nc3c(F)cccc31)OCO2 [CMLD012399, 7-fluoro-3,3-bis(6-((R)-2-hydroxybutoxy)benzo[d][1,3]dioxol-5-yl)indolin-2-one] here?
A: 0.500

Q: For C=CC[C@@H](O)COc1cc2c(cc1C1(c3cc4c(cc3OC[C@H](O)CC=C)OCO4)C(=O)Nc3cc(F)ccc31)OCO2 [CMLD012400, 6-fluoro-3,3-bis(6-(((R)-2-hydroxypent-4-en-1-yl)oxy)benzo[d][1,3]dioxol-5-yl)indolin-2-one], which FICI is on record?
A: 0.130

Q: For C=CC[C@@H](O)COc1cc2c(cc1C1(c3cc4c(cc3OC[C@H](O)CC=C)OCO4)C(=O)Nc3c(F)cccc31)OCO2 [CMLD012402, 7-fluoro-3,3-bis(6-(((R)-2-hydroxypent-4-en-1-yl)oxy)benzo[d][1,3]dioxol-5-yl)indolin-2-one], which FICI is on record?
A: 0.113

Q: Which FICI does the source give for C=C(C)C[C@@H](O)COc1cc2c(cc1C1(c3cc4c(cc3OC[C@H](O)CC(=C)C)OCO4)C(=O)Nc3c(F)cccc31)OCO2 [CMLD012436, 7-fluoro-3,3-bis(6-(((R)-2-hydroxy-4-methylpent-4-en-1-yl)oxy)benzo[d][1,3]dioxol-5-yl)indolin-2-one] here?
A: 0.175

Q: For CCC[C@@H](O)COc1cc2c(cc1C1(c3cc4c(cc3OC[C@H](O)CCC)OCO4)C(=O)Nc3cc(F)ccc31)OCO2 [CMLD012439, 6-fluoro-3,3-bis(6-(((R)-2-hydroxypentyl)oxy)benzo[d][1,3]dioxol-5-yl)indolin-2-one], which FICI is on record?
A: 0.130

Q: CCC[C@@H](O)COc1cc2c(cc1C1(c3cc4c(cc3OC[C@H](O)CCC)OCO4)C(=O)Nc3c(F)cccc31)OCO2 [CMLD012440, 7-fluoro-3,3-bis(6-(((R)-2-hydroxypentyl)oxy)benzo[d][1,3]dioxol-5-yl)indolin-2-one] was tested. Which FICI did it give?
A: 0.058

Q: With CC(C)(C)C[C@@H](O)COc1cc2c(cc1C1(c3cc4c(cc3OC[C@H](O)CC(C)(C)C)OCO4)C(=O)Nc3cc(F)ccc31)OCO2 [CMLD012443, 6-fluoro-3,3-bis(6-(((R)-2-hydroxy-4,4-dimethylpentyl)oxy)benzo[d][1,3]dioxol-5-yl)indolin-2-one] as the compound, how does the FICI read?
A: 0.068

Q: For CC(C)(C)C[C@@H](O)COc1cc2c(cc1C1(c3cc4c(cc3OC[C@H](O)CC(C)(C)C)OCO4)C(=O)Nc3ccc(F)cc31)OCO2 [CMLD012444, 5-fluoro-3,3-bis(6-(((R)-2-hydroxy-4,4-dimethylpentyl)oxy)benzo[d][1,3]dioxol-5-yl)indolin-2-one], which FICI is on record?
A: 0.068

Q: With CC(C)(C)C[C@@H](O)COc1cc2c(cc1C1(c3cc4c(cc3OC[C@H](O)CC(C)(C)C)OCO4)C(=O)Nc3cc(Br)ccc31)OCO2 [CMLD012446, 6-bromo-3,3-bis(6-(((R)-2-hydroxy-4,4-dimethylpentyl)oxy)benzo[d][1,3]dioxol-5-yl)indolin-2-one] as the compound, how does the FICI read?
A: 0.068

Q: With C=CCC[C@@H](O)COc1cc2c(cc1C1(c3cc4c(cc3OC[C@H](O)CCC=C)OCO4)C(=O)Nc3cc(F)ccc31)OCO2 [CMLD012447, 6-fluoro-3,3-bis(6-(((R)-2-hydroxyhex-5-en-1-yl)oxy)benzo[d][1,3]dioxol-5-yl)indolin-2-one] as the compound, how does the FICI read?
A: 0.130

Q: For C=CCC[C@@H](O)COc1cc2c(cc1C1(c3cc4c(cc3OC[C@H](O)CCC=C)OCO4)C(=O)Nc3c(F)cccc31)OCO2 [CMLD012449, 7-fluoro-3,3-bis(6-(((R)-2-hydroxyhex-5-en-1-yl)oxy)benzo[d][1,3]dioxol-5-yl)indolin-2-one], which FICI is on record?
A: 0.113

Q: For C=CCC[C@@H](O)COc1cc2c(cc1C1(c3cc4c(cc3OC[C@H](O)CCC=C)OCO4)C(=O)Nc3ccc(F)cc31)OCO2 [CMLD012450, 5-fluoro-3,3-bis(6-(((R)-2-hydroxyhex-5-en-1-yl)oxy)benzo[d][1,3]dioxol-5-yl)indolin-2-one], which FICI is on record?
A: 0.266

Q: Which FICI does the source give for C=CCC[C@@H](O)COc1cc2c(cc1C1(c3cc4c(cc3OC[C@H](O)CCC=C)OCO4)C(=O)Nc3cc(Br)ccc31)OCO2 [CMLD012452, 6-bromo-3,3-bis(6-(((R)-2-hydroxyhex-5-en-1-yl)oxy)benzo[d][1,3]dioxol-5-yl)indolin-2-one] here?
A: 0.266

Q: For C=CCC[C@@H](O)COc1cc2c(cc1C1(c3cc4c(cc3OC[C@H](O)CCC=C)OCO4)C(=O)Nc3cccc(Br)c31)OCO2 [CMLD012453, 4-bromo-3,3-bis(6-(((R)-2-hydroxyhex-5-en-1-yl)oxy)benzo[d][1,3]dioxol-5-yl)indolin-2-one], which FICI is on record?
A: 0.257

Q: With CCC[C@@H](O)COc1cc2c(cc1C1(c3cc4c(cc3OC[C@H](O)CCC)OCO4)C(=O)Nc3ccc(F)cc31)OCO2 [CMLD013619, 5-fluoro-3,3-bis(6-(((R)-2-hydroxypentyl)oxy)benzo[d][1,3]dioxol-5-yl)indolin-2-one] as the compound, how does the FICI read?
A: 0.255

Q: With CC(C)C[C@@H](O)COc1cc2c(cc1C1(c3cc4c(cc3OC[C@H](O)CC(C)C)OCO4)C(=O)Nc3ccc(F)cc31)OCO2 [CMLD013622, 5-fluoro-3,3-bis(6-(((R)-2-hydroxy-4-methylpentyl)oxy)benzo[d][1,3]dioxol-5-yl)indolin-2-one] as the compound, how does the FICI read?
A: 0.130

Q: Which FICI does the source give for CC(C)C[C@@H](O)COc1cc2c(cc1C1(c3cc4c(cc3OC[C@H](O)CC(C)C)OCO4)C(=O)Nc3c(F)cccc31)OCO2 [CMLD013623, 7-fluoro-3,3-bis(6-(((R)-2-hydroxy-4-methylpentyl)oxy)benzo[d][1,3]dioxol-5-yl)indolin-2-one] here?
A: 0.036

Q: CC(C)(C)C[C@@H](O)COc1cc2c(cc1C1(c3cc4c(cc3OC[C@H](O)CC(C)(C)C)OCO4)C(=O)Nc3c(F)cccc31)OCO2 [CMLD013624, 7-fluoro-3,3-bis(6-(((R)-2-hydroxy-4,4-dimethylpentyl)oxy)benzo[d][1,3]dioxol-5-yl)indolin-2-one] was tested. Which FICI did it give?
A: 0.068

Q: Which FICI does the source give for CC(C)C[C@@H](O)COc1cc2c(cc1C1(c3cc4c(cc3OC[C@H](O)CC(C)C)OCCO4)C(=O)Nc3cc(F)ccc31)OCCO2 [CMLD013648, 6-fluoro-3,3-bis(7-(((2R)-2-hydroxy-4-methylpentyl)oxy)-2,3-dihydro-1,4-benzodioxin-6-yl)-2,3-dihydro-1H-indol-2-one] here?
A: 0.255

Q: How did the FICI turn out when CC(C)C[C@@H](O)COc1cc2c(cc1C1(c3cc4c(cc3OC[C@H](O)CC(C)C)OCO4)C(=O)Nc3ccc(Br)cc31)OCO2 [CMLD013650, 5-bromo-3,3-bis(6-(((2R)-2-hydroxy-4-methylpentyl)oxy)-2H-1,3-benzodioxol-5-yl)-2,3-dihydro-1H-indol-2-one] was run?
A: 0.300

Q: With CC(C)C[C@@H](O)COc1cc2c(cc1C1(c3cc4c(cc3OC[C@H](O)CC(C)C)OCO4)C(=O)Nc3cc(Br)ccc31)OCO2 [CMLD013651, 6-bromo-3,3-bis(6-(((2R)-2-hydroxy-4-methylpentyl)oxy)-2H-1,3-benzodioxol-5-yl)-2,3-dihydro-1H-indol-2-one] as the compound, how does the FICI read?
A: 0.130

Q: How did the FICI turn out when CC(C)(C)C[C@@H](O)COc1cc2c(cc1C1(c3cc4c(cc3OC[C@H](O)CC(C)(C)C)OCO4)C(=O)Nc3ccc(Br)cc31)OCO2 [CMLD013652, 5-bromo-3,3-bis(6-(((2R)-2-hydroxy-4,4-dimethylpentyl)oxy)-2H-1,3-benzodioxol-5-yl)-2,3-dihydro-1H-indol-2-one] was run?
A: 0.175

Q: Which FICI does the source give for CC(C)C[C@@H](O)COc1cc2c(cc1C1(c3cc4c(cc3OC[C@H](O)CC(C)C)OCCO4)C(=O)Nc3c(F)cccc31)OCCO2 [CMLD013654, 7-fluoro-3,3-bis(7-(((2R)-2-hydroxy-4-methylpentyl)oxy)-2,3-dihydro-1,4-benzodioxin-6-yl)-2,3-dihydro-1H-indol-2-one] here?
A: 0.255

Q: For CCC[C@@H](O)COc1cc2c(cc1C1(c3cc4c(cc3OCC)OCO4)C(=O)Nc3c(F)cccc31)OCO2 (stereo partly drawn) [CMLD013655, 3-(6-ethoxy-2H-1,3-benzodioxol-5-yl)-7-fluoro-3-(6-(((2R)-2-hydroxypentyl)oxy)-2H-1,3-benzodioxol-5-yl)-2,3-dihydro-1H-indol-2-one], which FICI is on record?
A: 0.113

Q: With O=C1Nc2ccccc2C1(c1ccc(O)cc1)c1ccc(O)cc1 [Oxyphenisatin, oxyphenisatin, reference compound] as the compound, how does the FICI read?
A: 2

Q: C=C(C)C[C@@H](O)COc1cc2c(cc1C1(c3cc4c(cc3OCC)OCO4)C(=O)Nc3cc(F)ccc31)OCO2 (stereo partly drawn) [RT-162S-015, 3-(6-ethoxybenzo[d][1,3]dioxol-5-yl)-6-fluoro-3-(6-(((R)-2-hydroxy-4-methylpent-4-en-1-yl)oxy)benzo[d][1,3]dioxol-5-yl)indolin-2-one] was tested. Which FICI did it give?
A: 0.133
